# Entries after “also recorded” stand apart in the source; their conditions may differ. Like-named read-outs stand apart in the source and are kept apart here.
# Key:
# LPA1 = target: T1, LPA1 (Homo sapiens, UniProt Q92633); experiment: Ca2+ transients (agonism / inhibition of LPA response) in RH7777 cells stably expressing LPA1; type: cell-based
# T1 construct: expressed in transfected cells
# Method: (§1) The culture medium (DMEM containing 10% FBS) was then replaced with modified Krebs solution (120 mM NaCl, 5 mM KCl, 0.62 mM MgSO4, 1.8 mM CaCl2, 10 mM HEPES, 6 mM glucose, pH 7.4) and the cells were serum starved for 6–8 hours (12 h for PC-3 cells). Cells were loaded with Fura-2 AM for 35 minutes in modified Krebs medium. The Fura-2 was removed before loading the plate in the FlexStation instrument by replacing the medium once again with 100 μl modified Krebs medium/well. Plates were incubated for 4 minutes in the instrument to allow for warming to 37° C. Changes in intracellular Ca^2+ concentration were monitored by measuring the ratio of emitted light intensity at 520 nm in response to excitation by 340 nm and 380 nm wavelength lights, respectively. Each well was monitored for 80–120 seconds. […] Time courses were recorded using the SoftMax Pro software (Molecular Devices, Sunnyvale, Calif.). Ca^2+ transients were quantified automatically by calculating the difference between maximum and baseline ratio values for each well.
# (§2) Each FAP analog was tested for the ability to induce Ca^2+ transients in RH7777 cells transfected with LPA1-3 receptors (agonism), as well as the ability to inhibit LPAinduced Ca^2+ transients in the same cells (antagonism) (Table 3).
# PC-3 cells = experiment: Ca2+ transients in PC-3 cells endogenously expressing LPA1-3; type: cell-based, human
# Method: as §1
# We tested the FAP analogs in PC-3 cells, which unlike the transfected RH7777 cells endogenously express LPA1-3 receptors.
# LPA3 = target: T2, LPA3 (Homo sapiens, UniProt Q9UBY5); experiment: Ca2+ transients (agonism / inhibition of LPA response) in RH7777 cells stably expressing LPA3; type: cell-based
# T2 construct: expressed in transfected cells
# T2 sequence (Q9UBY5 1-353): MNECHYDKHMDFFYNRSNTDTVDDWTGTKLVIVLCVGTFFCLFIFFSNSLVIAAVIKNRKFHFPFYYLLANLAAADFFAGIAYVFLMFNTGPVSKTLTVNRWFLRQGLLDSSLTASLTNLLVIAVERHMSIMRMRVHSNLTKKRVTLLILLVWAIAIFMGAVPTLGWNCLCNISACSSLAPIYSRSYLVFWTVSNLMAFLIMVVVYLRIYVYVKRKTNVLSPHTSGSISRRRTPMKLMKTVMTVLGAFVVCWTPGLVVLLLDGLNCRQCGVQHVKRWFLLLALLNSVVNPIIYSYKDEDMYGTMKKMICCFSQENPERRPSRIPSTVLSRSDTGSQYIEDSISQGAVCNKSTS
# Method: as §1, §2
# LPA2 = target: T3, LPA2 (Homo sapiens, UniProt Q9HBW0); experiment: Ca2+ transients (agonism / inhibition of LPA response) in RH7777 cells stably expressing LPA2; type: cell-based; details: for EC50: read-out: LPA2 EC50
# T3 construct: expressed in transfected cells
# T3 sequence (Q9HBW0 whole entry): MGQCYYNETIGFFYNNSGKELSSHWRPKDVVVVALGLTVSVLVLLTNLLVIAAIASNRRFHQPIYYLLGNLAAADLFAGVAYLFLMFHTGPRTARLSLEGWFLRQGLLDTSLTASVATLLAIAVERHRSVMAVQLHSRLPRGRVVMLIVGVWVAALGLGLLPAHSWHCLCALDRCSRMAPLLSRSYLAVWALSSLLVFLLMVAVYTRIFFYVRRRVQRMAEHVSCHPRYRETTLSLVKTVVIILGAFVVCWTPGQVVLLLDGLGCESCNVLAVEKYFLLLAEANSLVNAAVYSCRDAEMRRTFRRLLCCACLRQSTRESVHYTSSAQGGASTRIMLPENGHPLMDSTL
# Method: as §1, §2
# [1] = Homo sapiens, inhibition of LPA-induced Ca2+ transients, PC-3 cells, read-out: PC-3 IC50
# [2] = inhibition of LPA-induced Ca2+ transients, PC-3 cells
# [3] = induction of Ca2+ transients, RH7777 cells expressing LPA1, read-out: LPA1 EC50
# [4] = induction of Ca2+ transients, RH7777 cells expressing LPA3, read-out: LPA3 EC50
# [5] = inhibition of LPA-induced Ca2+ transients, RH7777 cells expressing LPA3, read-out: LPA3 (Ki)
# [6] = inhibition of LPA-induced Ca2+ transients, RH7777 cells expressing LPA3, read-out: LPA3 IC50
# [7] = RH7777, maximal efficacy of the drug/maximal efficacy of LPA 18:1, read-out: LPA2 (Emax)
# [8] = inhibition of LPA-induced Ca2+ transients, RH7777 cells expressing LPA2, read-out: LPA2 IC50
# [9] = inhibition of LPA-induced Ca2+ transients, RH7777 cells expressing LPA1, read-out: LPA1 IC50
# [10] = induction of Ca2+ transients, RH7777 cells expressing LPA2
# [11] = Homo sapiens, PC-3, read-out: PC-3 IC50
# T1 sequence (Q92633 whole entry): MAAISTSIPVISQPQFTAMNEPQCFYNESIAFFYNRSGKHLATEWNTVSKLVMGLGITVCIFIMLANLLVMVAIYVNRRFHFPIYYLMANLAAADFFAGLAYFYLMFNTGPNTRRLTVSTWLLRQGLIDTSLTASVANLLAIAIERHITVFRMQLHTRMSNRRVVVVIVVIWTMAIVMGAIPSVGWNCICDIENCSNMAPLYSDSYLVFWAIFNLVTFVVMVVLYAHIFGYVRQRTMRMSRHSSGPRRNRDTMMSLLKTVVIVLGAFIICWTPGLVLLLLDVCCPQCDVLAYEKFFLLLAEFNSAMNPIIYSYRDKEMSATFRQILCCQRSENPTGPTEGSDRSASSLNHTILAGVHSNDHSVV
IC50 (PC-3 cells; [1]),EC50 (LPA1; [3]),EC50 (LPA3; [4]),Ki (LPA3; [5]),IC50 (LPA3; [6]),Emax (LPA2; [7]),IC50 (LPA2; [8]),IC50 (LPA1; [9]),EC50 (LPA2; [10]),SMILES,Ki (PC-3 cells; [2]),EC50 (LPA3),IC50 (PC-3 cells; [11]),EC50 (LPA1),IC50 (LPA1),also measured
–,–,–,–,–,–,–,–,–,CCCCCCCCOC[C@@H](COP(O)(O)=S)OCCCCCCCC [(S) enantiomer],–,–,–,–,–,"IC50 (LPA1; for 200 nM LPA, formula (VII)A enantiomer, method not stated at b93, read-out: IC50 for LPA1): 184 nM"
1510 nM,> 30000 nM,> 30000 nM,504 nM,770 nM,100%,> 30000 nM,–,–,"C=CCCCCCCCCOP(=O)(O)O [Compound 5a, Phosphoric acid monodec-9-enyl ester]",574 nM,–,–,–,–,–
916 nM,> 30000 nM,> 30000 nM,27 nM,32 nM,–,> 30000 nM,> 10000 nM,717 nM,"CCC=CCCCCCCCCOP(=O)(O)O [Compound 5c, Phosphoric acid monododec-9-enyl ester]",390 nM,–,–,–,–,–
241 nM,–,> 30000 nM,58 nM,96 nM,58%,> 30000 nM,–,397 nM,"CCCCC=CCCCCCCCCOP(=O)(O)O [Compound 5d, Phosphoric acid monotetradec-9-enyl ester]",123 nM,–,–,–,–,–
–,–,> 30000 nM,40 nM,103 nM,75%,> 30000 nM,–,4100 nM,"CCC=CCCCCCCCCCCOP(=O)(O)O [Compound 5e, Phosphoric acid monotetradec-11-enyl ester]",–,–,–,–,–,–
–,> 30000 nM,> 30000 nM,–,> 30000 nM,–,> 30000 nM,> 30000 nM,> 30000 nM,"CCCCCCCCC=CCCCCCCCCOP(=O)(O)O [Compound 5f, Phosphoric acid monooctadec-9-enyl ester]",–,–,–,–,–,"Emax (PC-3 cells; Homo sapiens, PC-3, maximal efficacy of the drug/maximal efficacy of LPA 18:1, read-out: PC-3 (Emax)): 11%; effect at LPA1 in words (LPA1; Ca2+ transients, RH7777 cells expressing LPA1): did not inhibit nor did it activate Ca^2+ mobilization; also recorded: potentiated LPA response; effect at LPA3 in words (LPA3; Ca2+ transients, RH7777 cells expressing LPA3): did not inhibit nor did it activate Ca^2+ mobilization; also recorded: potentiated LPA response"
–,> 30000 nM,> 30000 nM,575 nM,1510 nM,40%,> 30000 nM,2500 nM,–,"CCCCCCCCCCCCCCC(F)(F)P(=O)(O)O [Compound 11, (1,1-Difluoro-pentadecyl) Phosphonic Acid]",–,–,–,–,–,"Ki (LPA1; inhibition of LPA-induced Ca2+ transients, RH7777 cells expressing LPA1): 788 nM; inhibition of LPA response at LPA1 (partial antagonism) (LPA1; maximal inhibition): 40%; EC50 (LPA2; RH7777 cells expressing LPA2): 10000 nM"

SMILES,IC50 (PC-3 cells; [1]),EC50 (LPA1; [3]),EC50 (LPA3; [4]),Ki (LPA3; [5]),IC50 (LPA3; [6]),Emax (LPA2; [7]),IC50 (LPA2; [8]),IC50 (LPA1; [9]),EC50 (LPA2; [10]),Ki (PC-3 cells; [2]),EC50 (LPA3),IC50 (PC-3 cells; [11]),EC50 (LPA1),IC50 (LPA1),also measured
"CCCCCC=CCCCOP(=O)(O)O [Compound 5b, Phosphoric acid monodec-4-enyl ester]",1300 nM,> 30000 nM,–,–,–,–,> 30000 nM,> 10000 nM,> 10000 nM,735 nM,> 30000 nM,–,–,–,IC50 (LPA3): 830 nM; Ki (LPA3): 370 nM
"CCCCCCCCCCOP(O)(O)=S [Compound 8a, Thiophosphoric acid O-decyl ester]",–,–,–,49 nM,122 nM,–,–,–,–,521 nM,> 30000 nM,1220 nM,> 30000 nM,> 30000 nM,–
"CCCCCCCCCCCCOP(O)(O)=S [Compound 8b, Thiophosphoric acid O-dodecyl ester]",–,–,–,14 nM,28 nM,–,–,–,–,1300 nM,> 30000 nM,2840 nM,> 30000 nM,> 30000 nM,–
"CCCCCCCCCCCCCCOP(O)(O)=S [Compound 8c, Thiophosphoric acid O-tetradecyl ester]",–,–,–,76 nM,162 nM,–,–,–,–,–,> 30000 nM,> 30000 nM,> 30000 nM,> 30000 nM,"EC50 (PC-3 cells; Homo sapiens, PC-3, read-out: PC-3 EC50): > 30000 nM"
"C=CCCCCCCCCOP(O)(O)=S [Compound 8d, Thiophosphoric acid O-dec-9-enyl ester]",–,–,–,128 nM,340 nM,–,–,–,–,533 nM,> 30000 nM,1000 nM,> 30000 nM,> 30000 nM,"IC50 (LPA2): > 30000 nM; Emax (LPA2; RH7777, read-out: LPA2 (Emax)): 56%"
